The values below come from patent publication US11597725B2, “URAT1 inhibitor for promoting uric acid excretion” (JIANGSU ATOM BIOSCIENCE AND PHARMACEUTICAL CO., LTD., priority 2017, dated 2023).

The experiment concerns the target T1, hURAT1 (Homo sapiens, UniProt Q96S37).
T1 sequence (Q96S37 1-553): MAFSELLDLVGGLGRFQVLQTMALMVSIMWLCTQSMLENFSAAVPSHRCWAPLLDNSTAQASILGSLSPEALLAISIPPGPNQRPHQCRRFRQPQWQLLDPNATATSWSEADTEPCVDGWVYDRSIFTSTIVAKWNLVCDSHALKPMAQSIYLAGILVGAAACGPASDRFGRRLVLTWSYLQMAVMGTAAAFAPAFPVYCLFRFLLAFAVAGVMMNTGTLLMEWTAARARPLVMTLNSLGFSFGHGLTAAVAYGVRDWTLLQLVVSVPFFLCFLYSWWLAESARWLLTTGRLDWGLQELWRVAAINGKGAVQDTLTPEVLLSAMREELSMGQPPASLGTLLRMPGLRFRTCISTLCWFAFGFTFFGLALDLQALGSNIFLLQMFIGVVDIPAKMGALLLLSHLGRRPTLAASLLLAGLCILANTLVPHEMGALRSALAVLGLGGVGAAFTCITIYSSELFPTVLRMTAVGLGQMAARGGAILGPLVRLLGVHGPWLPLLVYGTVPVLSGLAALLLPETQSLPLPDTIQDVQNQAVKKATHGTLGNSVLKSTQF
Nature of the experiment: Inhibition assay of uric acid transport in HEK293-hURAT1 transfection cell line (14C-uric acid uptake). It is filed as cell-based. The conditions noted are these: for inhibition at 0.5 µM: compound concentration 500 nM, HEK293-hURAT1 stable cells, 14C-uric acid, mean of three tests ±SD, read-out: Inhibition rate of uric acid transport, ±SD (%); for inhibitory effects of uric acid transport in HEK293-hURAT1 transfection cell line, in words: in comparison with control drug Zurampic at 500 nM. As for the experimental part:
Inhibition Assay of Uric Acid Transport for Compounds in HEK293-hURAT1 Transfection Cell Line
1. Construction of a HEK293 stable cell line with high expression of hURAT1:
The plasmid pCMV6-hURAT1 was transfected into HEK293 cells, then the stable strain was obtained by the G418 (final concentration of 500 μg/mL) resistance screening, which is the high expression of hURAT1 transporter membrane protein. It can be used for in vitro inhibition assay of uric acid transporter hURAT1 (Weaver Y M, Ehresman D J, Butenhoff J L, et al. Roles of rat renal organic anion transporters in transporting perfluorinated carboxylates with different chain lengths. Toxicological Sciences, 2009, 113(2):305-314).
2. Coating 24-well plate: to a coated 24-well plate was added 200 μl of 0.1 mg/mL poly-lysine per well and the plate was left overnight. Poly-lysine was removed from wells. The wells were cleaned thoroughly with steriled water and dried for use.
3. To the above coated 24-well plate was added HEK293-hURAT1 stable cells (2×10^5 cells per well). The cells were cultured at 37° C. under 5% CO2 for 3 days.
4. Preparation of HBSS buffer: the following reagents were weighed according to the final concentration of 125 mM sodium gluconate, 4.8 mM potassium gluconate, 1.3 mM calcium gluconate, 1.2 mM KH2PO4, 1.2 mM MgSO4, 5.6 mM glucose and 25 mM HEPES. Deionized water was added to reach the corresponding volume, and the solution was fully mixed to give HBSS (pH value: 7.4). The buffer was stored at −20° C. in a refrigerator.
5. At the day of experiment, the HBSS buffer was taken out of the refrigerator and warmed to 37° C. in a water bath. Taken out the 24-well plate with HEK293-hURAT1 stable cells, removed the culture medium and washed cells with HBSS, then add 160 μL of HBSS and 20 μL test compound per well. The final concentration of tested compound per well is 500 nM. The blank control well contains only 180 μL of HBSS without tested compound. The plate was placed at room temperature for 10 minutes.
6. To each well was added 20 μL of 50 μM ^14C-uric acid. The 24-well plate was placed at room temperature for 20 minutes.
7. The solution in each well was removed and the cells in each well were washed with the pre-cooled HBSS buffer. To each well was added 0.2 M NaOH to dissolve the cells. The solution containing cell fragments was collected and the appropriate amount of scintillation liquid was added. The radioisotope intensity of the ^14C-Uric acid (CPM value) was then detected by using PerkinElmer MicroBeta Trilux 1450 liquid scintillation analyzer.
8. In HEK293 transfected cell lines, the formula for calculating the inhabitation rate of uric acid transport for compounds was shown as below (Table 1), the CPM value of the tested compounds was represented by CPM(tested compound) and the CPM value of the blank control was represented by CPM(blank control). All tests were repeated three times, and the results were averaged and the standard deviation (SD) was calculated: Inhibition rate(%)(500 nM compound concentration)=(CPM(blank control)−CPM(test compound))/CPM(blank control)×100%

As for `CCc1nc2n(c1C(=O)c1cc(Br)c(O)c(Br)c1)CCCC2` [Compound 5, (3,5-dibromo-4-hydroxyphenyl)(2-ethyl-5,6,7,8-tetrahydroimidazo[1,2-a]pyridine-3-yl)methanone], the inhibition (as a rule, the change of the read-out against control, counted positive when it falls) at 0.5 µM was 53.4 ± 4.54% and the “inhibitory effects of uric acid transport in HEK293-hURAT1 transfection cell line, in words” value (from here on “inhibitory effects”) was “very good inhibitory effects”.
With `[2H]C1c2nc(CC)c(C(=O)c3cc(Br)c(O)c(Br)c3)n2C([2H])C([2H])([2H])C1[2H]` (stereo not shown) [Compound 10, (3,5-dibromo-4-hydroxyphenyl)(5,6,6,7,8-pentadeuterio-2-ethyl-5,6,7,8-tetrahydroimidazo[1,2-a]pyridin-3-yl)methanone], the inhibition at 0.5 µM amounted to 47.5 ± 3.12% and the “inhibitory effects” value is listed as “very good inhibitory effects”.
Take `CCc1nc2n(c1C(=O)c1cc(Br)c(O)c(C#N)c1)CCCC2` [Compound 17, 3-bromo-5-(2-ethyl-5,6,7,8-tetrahydroimidazo[1,2-a]pyridine-3-carbonyl)-2-hydroxybenzonitrile]: the inhibition at 0.5 µM was found to be 47.46 ± 0.14% and the “inhibitory effects” value is given as “very good inhibitory effects”.
In the case of `CCc1nc2n(c1C(=O)c1cc(Br)c(O)c(Br)c1)CCC(O)C2` (stereo not shown) [Compound 23, (3,5-dibromo-4-hydroxyphenyl)(2-ethyl-7-hydroxy-5,6,7,8-tetrahydroimidazo[1,2-a]pyridine-3-yl)methanone], the inhibition at 0.5 µM came to 47.5 ± 1.65% and the “inhibitory effects” value is “very good inhibitory effects”.
The matching figures for `CCc1nc2n(c1C(=O)c1cc(Br)c(O)c(Br)c1)CCC(OC)C2` (stereo not shown) [Compound 25, (3,5-dibromo-4-hydroxyphenyl)-(2-ethyl-7-methoxy-5,6,7,8-tetrahydroimidazo[1,2-a]pyridin-3-yl)methanone]: 47.6 ± 4.12% and “very good inhibitory effects”.
As for `CCc1nn2c(c1C(=O)c1cc(Br)c(O)c(Br)c1)CCCC2` [Compound 32], the inhibition at 0.5 µM worked out at 43.4 ± 2.4%.
For `CCn1nc2c(c1C(=O)c1cc(Br)c(O)c(Br)c1)CCCC2` [Compound 41, (3,5-dibromo-4-hydroxyphenyl)(2-ethyl-4,5,6,7-tetrahydro-2H-indazol-3-yl)methanone], the inhibition at 0.5 µM came out at 46.2 ± 6.18% and the “inhibitory effects” value is recorded as “very good inhibitory effects”.
In the same order, the values of `CCc1nc2n(c1C(O)c1cc(Br)c(O)c(Br)c1)CCCC2` (stereo not shown) [Compound 42, 2,6-dibromo-4-[(2-ethyl-5,6,7,8-tetrahydroimidazo[1,2-a]-pyridin-3-yl)hydroxymethyl]phenol] are 47.6 ± 3.08% and “very good inhibitory effects”.
In the same order, the values of `CCc1nc2n(c1C(=O)c1cc(Br)c(O)c(Br)c1)CC(C)CC2` (stereo not shown) [Compound 43, (3,5-dibromo-4-hydroxyphenyl)(2-ethyl-6-methyl-5,6,7,8-tetrahydroimidazo[1,2-a]pyridin-3-yl)methanone] are 53.2 ± 9.36% and “very good inhibitory effects”.
Regarding `CCc1nc2n(c1C(=O)c1cc(C)c(O)c(Br)c1)CCCC2` [Compound 48, (3-bromo-4-hydroxy-5-methylphenyl)(2-ethyl-5,6,7,8-tetrahydroimidazo[1,2-a]pyridin-3-yl)methanone], the inhibition at 0.5 µM is 46.1 ± 4.91% and the “inhibitory effects” value is given as “very good inhibitory effects”.
For the compound `CCn1nc2c(c1C(=O)c1cc(Br)c(O)c(Br)c1)COCC2` [Compound 58], the inhibition at 0.5 µM stood at 38.6 ± 6.3%.
Same read-out and setting: as for `CCc1nc2n(c1C(O)c1cc(Br)c(O)c(C#N)c1)CCCC2` (stereo not shown) [Compound 63, 3-bromo-5-((2-ethyl-5,6,7,8-tetrahydroimidazo[1,2-a]pyridin-3-yl)hydroxymethyl)-2-hydroxyl benzonitrile], the figure is 42.3 ± 2.6%.
Still for that read-out and setting: the value for `O=C(O)CSc1nnc(Br)n1-c1ccc(C2CC2)c2ccccc12` [Zurampic, Lesinurad, reference compound] was 27.6 ± 2.89%.
